Source: patent US10400224B2, “Enantioselective modified esterase enzyme and method for the production thereof” (CORPORACIÓN CORPOGEN, priority 2014, dated 2019)

Tests used:
Format in all cases: biochemical, Acidicaldus organivorans USBA-GBX-499
modified esterase 499EST [1] = test: Effect of organic solvents on the modified esterase; settings: for % actividad relativa: pNPC8, 55° C., pH 9.0; for esterase activity increased to: solvent at a concentration of 15% and 30%
Method: (§1) The activity of the modified enzyme was determined spectrophotometrically at 405 nm in a range of temperatures between 45 and 75° C., using p-nitro phenyl of other chains C6 to C10 (Sigma-Aldrich) as substrate. One unit of esterase activity was defined as the capacity of the enzyme to release 1 μmol min^−1 of p-nitrophenol under the essay conditions. The molar absorbance coefficient was of 16.900 M^−1 cm^−1. The mixture consisted of 448 μl of the Tris-HCl 50 mM buffer at 9.0 pH that contained 50 μl of p-nitrophenyl diluted in isopropanol and 2 μl of the solution stock of the protein. All the assays were made by triplicate and the average was calculated.
(§2) The evaluation of metallic, solvent and detergent ions and inhibitors of the modified enzyme was carried out incubating the enzyme in the presence of each of them for one hour at 30° C. The evaluation established the stability of the referenced enzyme at a control for which the enzyme was in absence of the additive. The result was expressed in percentage of residual activity, being 100% the control.
Effect of organic solvents. The activity of the enzyme was evaluated in presence of different organic solvents. Two concentrations were evaluated, 15 and 30% of 1 butanol, 2 butanol, acetonitrile, acetone, 1-propanol, 2-propanol, methanol, ethanol, glycerol, dimethyl sulfoxide (DMSO), dimethyl formamide (DMF) (Table 3)

499EST = test: Effect of inhibitors on the modified enzyme 499EST; settings: inhibitor 5 mM; one hour at 30° C.
Method: as §1, §2
(§3) The effect of the detergents, sodium dodecyl sulfate (SDS), Tween 20, Tween 80, Triton X-100, were evaluated at concentrations of 1 and 5% (v/v) (Table 2). In the evaluations it was determined the effect of inhibitors such phenylmethanesulfonyl fluoride-PMSF, ethylenediaminetetraacetic acid, EDTA, 2-mercaptoethanol (2-ME), dithiothreitol (DTT), the evaluated concentration was of 5 mM.

modified esterase 499EST [2] = test: Effect of metallic ions on the activity of the modified esterase 499EST; settings: for Actividad relativa (%): pNPC8, 55° C., pH 9.0, control without additives = 100%
Method: as §1, §2
It was evaluated the effect of metallic ions on the enzyme activity. The ions evaluated were: CaCl2, FeCl3, MgCl2, CoCl2, NiCl2, ZnCl2, CuCl2 and MnCl2, the concentrations used were 1 mM and 10 mM. The effect of the ions Fe^3+ was evaluated at concentrations of 0.2 mM-10 mM, and its influence on the thermo stability between 50 and 65° C. (Table 1).

modified esterase 499EST [3] = test: Effect of detergents on the modified esterase 499EST; settings: for % actividad relativa: pNPC8, 55° C., pH 9.0, control without additives = 100%
Method: as §1, §2, §3

## 1-butanol
Modified esterase 499EST [1]; organic solvent 15%
  % actividad relativa: 1.5%
Modified esterase 499EST [1]; organic solvent 30%
  % actividad relativa: 0.0%

## O[C@H](CS)[C@H](O)CS (racemic) [DTT, dithiothreitol]
499EST
  inhibition of the enzymatic activity: totally inhibits

## CCCO [1-propanol]
Modified esterase 499EST [1]; organic solvent 15%
  % actividad relativa: 26.8%
Modified esterase 499EST [1]; organic solvent 30%
  % actividad relativa: 24.81%

## CCC(C)O (centres unmarked) [2-butanol]
Modified esterase 499EST [1]; organic solvent 15%
  % actividad relativa: 16.3%
Modified esterase 499EST [1]; organic solvent 30%
  % actividad relativa: 14.7%

## CC(C)O [2-propanol]
Modified esterase 499EST [1]; organic solvent 15%
  % actividad relativa: 80.0%
Modified esterase 499EST [1]; organic solvent 30%
  % actividad relativa: 31.3%

## CC(C)=O [Acetona, acetone]
Modified esterase 499EST [1]; organic solvent 15%
  % actividad relativa: 72.0%
Modified esterase 499EST [1]; organic solvent 30%
  % actividad relativa: 9.7%

## CC#N [Acetonitrilo, acetonitrile]
Modified esterase 499EST [1]; organic solvent 15%
  % actividad relativa: 17.0%
Modified esterase 499EST [1]; organic solvent 30%
  % actividad relativa: 0.0%

## [Ca+2].[Cl-].[Cl-] [Ca^2+, CaCl2]
Modified esterase 499EST [2]; ion 1 mM
  Actividad relativa (%): 9%
Modified esterase 499EST [2]; ion 10 mM
  Actividad relativa (%): 7%
Modified esterase 499EST [2]; ion 10 mM, listed as Ca^+2
  Actividad relativa (%): highest enzyme inhibition

## [Cl-].[Cl-].[Co+2] [Co^2+, CoCl2]
Modified esterase 499EST [2]; ion 1 mM
  Actividad relativa (%): 74%
Modified esterase 499EST [2]; ion 10 mM
  Actividad relativa (%): 23%
Modified esterase 499EST [2]; ion 10 mM, listed as Co^+2
  Actividad relativa (%): highest enzyme inhibition

## [Cl][Cu][Cl] [Cu^2+, CuCl2]
Modified esterase 499EST [2]; ion 1 mM
  Actividad relativa (%): 16%
Modified esterase 499EST [2]; ion 10 mM
  Actividad relativa (%): 0%
Modified esterase 499EST [2]; ion 10 mM, listed as Cu^+2
  Actividad relativa (%): highest enzyme inhibition

## CN(C)C=O [DMF, dimethyl formamide]
Modified esterase 499EST [1]; organic solvent 15%
  % actividad relativa: 12.4%
Modified esterase 499EST [1]; organic solvent 30%
  % actividad relativa: 12.4%

## C[S+](C)[O-] [DMSO, dimethyl sulfoxide]
Modified esterase 499EST [1]; organic solvent 15%
  % actividad relativa: 180.0%
Modified esterase 499EST [1]; organic solvent 30%
  % actividad relativa: 200.2%
Modified esterase 499EST [1]
  esterase activity increased to: 200%

## O=C(O)CN(CCN(CC(=O)O)CC(=O)O)CC(=O)O [EDTA, ethylenediaminetetraacetic acid]
499EST
  decrease in the relative enzymatic activity: 9%

## CCO [Etanol, ethanol]
Modified esterase 499EST [1]; organic solvent 15%
  % actividad relativa: 22%
Modified esterase 499EST [1]; organic solvent 30%
  % actividad relativa: 12.9%

## [Cl][Fe]([Cl])[Cl] [Fe^3+, FeCl3]
Modified esterase 499EST [2]; ion 1 mM
  Actividad relativa (%): 111%
Modified esterase 499EST [2]; ion 10 mM
  Actividad relativa (%): 342%
Modified esterase 499EST [2]; ion concentration from 2 to 10 mM
  increase of the specific activity of the enzyme: up to 3 times

## OCC(O)CO [Glicerol, glycerol]
Modified esterase 499EST [1]; organic solvent 15%
  % actividad relativa: 234.8%
Modified esterase 499EST [1]; organic solvent 30%
  % actividad relativa: 250.3%
Modified esterase 499EST [1]
  esterase activity increased to: 250%

## CO [Metanol, methanol]
Modified esterase 499EST [1]; organic solvent 15%
  % actividad relativa: 3.0%
Modified esterase 499EST [1]; organic solvent 30%
  % actividad relativa: 0.0%

## [Cl-].[Cl-].[Mg+2] [Mg^2+, MgCl2]
Modified esterase 499EST [2]; ion 1 mM
  Actividad relativa (%): 76%
Modified esterase 499EST [2]; ion 10 mM
  Actividad relativa (%): 3%
Modified esterase 499EST [2]; ion 10 mM, listed as Mg^+2
  Actividad relativa (%): highest enzyme inhibition

## [Cl][Mn][Cl] [Mn^2+, MnCl2]
Modified esterase 499EST [2]; ion 1 mM
  Actividad relativa (%): 252%
Modified esterase 499EST [2]; ion 10 mM
  Actividad relativa (%): 127%

## O=S(=O)(F)Cc1ccccc1 [PMSF, phenylmethanesulfonyl fluoride]
499EST
  activity detected: 80%

## CCCCCCCCCCCCOS(=O)(=O)[O-].[Na+] [SDS, sodium dodecyl sulfate]
Modified esterase 499EST [3]; 1 and 5% (v/v)
  effect of detergent on lipolytic activity: strongly inhibits
Modified esterase 499EST [3]; detergent 1%
  % actividad relativa: 8%
Modified esterase 499EST [3]; detergent 5%
  % actividad relativa: 6%

## CCCCCCCC/C=C\CCCCCCCC(=O)OCCOCC(OCCO)C1OCC(OCCO)C1OCCO (centres unmarked) [Tween 80]
Modified esterase 499EST [3]; detergent 1%
  % actividad relativa: 85%
Modified esterase 499EST [3]; detergent 5%
  % actividad relativa: 32%

## [Cl-].[Cl-].[Zn+2] [Zn^2+, ZnCl2]
Modified esterase 499EST [2]; ion 1 mM
  Actividad relativa (%): 190%
Modified esterase 499EST [2]; ion 10 mM
  Actividad relativa (%): 21%
Modified esterase 499EST [2]; ion 10 mM, listed as Zn^+2
  Actividad relativa (%): highest enzyme inhibition

## OCCS [β-mercaptoethanol, 2-mercaptoethanol]
499EST
  decrease in the relative enzymatic activity: 12%
